Experimental data reported in ChEMBL document CHEMBL3758087, “7TM X-ray structures for class C GPCRs as new drug-discovery tools. 1. mGluR5” (Bioorg Med Chem Lett, 2016).
pIC50, pKi: −log10 of the molar value. Each block holds one compound with its values, some of them ahead of it.

How the values were obtained:
[1] = biological target: T1, Metabotropic glutamate receptor 5 (Rattus norvegicus, UniProt P31424); test: Antagonist activity at rat mGluR5 expressed in HEK293 cells assessed as inhibition of glutamate-induced calcium mobilization by Fluo-4 dye-based fluorescence assay; type: functional, cell-based
[2] = biological target: T2, Metabotropic glutamate receptor 5 (Homo sapiens, UniProt P41594); test: Antagonist activity at human mGluR5d by fluo-3-based FLIPR assay
[3] = biological target: T2, Metabotropic glutamate receptor 5; test: Antagonist activity at mGluR5 (unknown origin)
[4] = biological target: T2, Metabotropic glutamate receptor 5; test: Antagonist activity at human mGluR5 expressed in CHO cells assessed as inhibition of glutamate-induced effect by aequorin bioluminescence assay; type: cell-based
[5] = biological target: T1, Metabotropic glutamate receptor 5; test: Displacement of [3H]methoxy-PEPgamma from mGluR5 in rat cerebral cortex membranes after 60 mins by scintillation counting analysis; type: cell membranes, Membrane

T2 sequence (P41594 whole entry): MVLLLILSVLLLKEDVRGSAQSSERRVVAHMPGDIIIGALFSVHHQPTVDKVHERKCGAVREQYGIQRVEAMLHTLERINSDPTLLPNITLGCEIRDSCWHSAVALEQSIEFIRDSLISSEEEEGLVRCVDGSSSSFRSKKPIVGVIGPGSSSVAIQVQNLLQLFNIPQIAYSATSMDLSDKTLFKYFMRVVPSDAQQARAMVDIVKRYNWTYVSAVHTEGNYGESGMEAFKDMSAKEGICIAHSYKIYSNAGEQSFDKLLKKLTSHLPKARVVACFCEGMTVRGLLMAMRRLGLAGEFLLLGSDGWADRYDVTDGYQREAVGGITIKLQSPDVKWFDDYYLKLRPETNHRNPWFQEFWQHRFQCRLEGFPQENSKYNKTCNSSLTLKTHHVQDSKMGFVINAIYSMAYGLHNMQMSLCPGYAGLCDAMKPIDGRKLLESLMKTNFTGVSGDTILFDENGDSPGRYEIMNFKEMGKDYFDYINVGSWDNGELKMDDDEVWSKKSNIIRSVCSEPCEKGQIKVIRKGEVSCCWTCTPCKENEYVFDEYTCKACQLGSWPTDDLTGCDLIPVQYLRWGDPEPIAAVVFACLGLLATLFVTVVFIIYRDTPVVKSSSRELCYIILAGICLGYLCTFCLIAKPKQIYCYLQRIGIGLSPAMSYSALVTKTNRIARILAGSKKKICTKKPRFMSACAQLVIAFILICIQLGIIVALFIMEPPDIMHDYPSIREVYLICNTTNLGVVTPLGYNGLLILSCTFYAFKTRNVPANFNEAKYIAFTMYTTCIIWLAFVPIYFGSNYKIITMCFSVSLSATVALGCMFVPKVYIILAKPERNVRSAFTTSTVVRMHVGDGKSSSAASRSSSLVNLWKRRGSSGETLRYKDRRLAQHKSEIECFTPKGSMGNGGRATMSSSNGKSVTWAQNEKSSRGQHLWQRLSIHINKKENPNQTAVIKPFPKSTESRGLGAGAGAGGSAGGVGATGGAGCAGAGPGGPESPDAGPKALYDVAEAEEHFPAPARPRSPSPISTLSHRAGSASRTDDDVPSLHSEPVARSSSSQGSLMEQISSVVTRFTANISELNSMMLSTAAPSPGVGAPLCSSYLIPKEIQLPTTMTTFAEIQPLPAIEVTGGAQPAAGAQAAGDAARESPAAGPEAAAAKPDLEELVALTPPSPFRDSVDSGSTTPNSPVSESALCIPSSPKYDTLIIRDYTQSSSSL
T1 sequence (P31424 whole entry): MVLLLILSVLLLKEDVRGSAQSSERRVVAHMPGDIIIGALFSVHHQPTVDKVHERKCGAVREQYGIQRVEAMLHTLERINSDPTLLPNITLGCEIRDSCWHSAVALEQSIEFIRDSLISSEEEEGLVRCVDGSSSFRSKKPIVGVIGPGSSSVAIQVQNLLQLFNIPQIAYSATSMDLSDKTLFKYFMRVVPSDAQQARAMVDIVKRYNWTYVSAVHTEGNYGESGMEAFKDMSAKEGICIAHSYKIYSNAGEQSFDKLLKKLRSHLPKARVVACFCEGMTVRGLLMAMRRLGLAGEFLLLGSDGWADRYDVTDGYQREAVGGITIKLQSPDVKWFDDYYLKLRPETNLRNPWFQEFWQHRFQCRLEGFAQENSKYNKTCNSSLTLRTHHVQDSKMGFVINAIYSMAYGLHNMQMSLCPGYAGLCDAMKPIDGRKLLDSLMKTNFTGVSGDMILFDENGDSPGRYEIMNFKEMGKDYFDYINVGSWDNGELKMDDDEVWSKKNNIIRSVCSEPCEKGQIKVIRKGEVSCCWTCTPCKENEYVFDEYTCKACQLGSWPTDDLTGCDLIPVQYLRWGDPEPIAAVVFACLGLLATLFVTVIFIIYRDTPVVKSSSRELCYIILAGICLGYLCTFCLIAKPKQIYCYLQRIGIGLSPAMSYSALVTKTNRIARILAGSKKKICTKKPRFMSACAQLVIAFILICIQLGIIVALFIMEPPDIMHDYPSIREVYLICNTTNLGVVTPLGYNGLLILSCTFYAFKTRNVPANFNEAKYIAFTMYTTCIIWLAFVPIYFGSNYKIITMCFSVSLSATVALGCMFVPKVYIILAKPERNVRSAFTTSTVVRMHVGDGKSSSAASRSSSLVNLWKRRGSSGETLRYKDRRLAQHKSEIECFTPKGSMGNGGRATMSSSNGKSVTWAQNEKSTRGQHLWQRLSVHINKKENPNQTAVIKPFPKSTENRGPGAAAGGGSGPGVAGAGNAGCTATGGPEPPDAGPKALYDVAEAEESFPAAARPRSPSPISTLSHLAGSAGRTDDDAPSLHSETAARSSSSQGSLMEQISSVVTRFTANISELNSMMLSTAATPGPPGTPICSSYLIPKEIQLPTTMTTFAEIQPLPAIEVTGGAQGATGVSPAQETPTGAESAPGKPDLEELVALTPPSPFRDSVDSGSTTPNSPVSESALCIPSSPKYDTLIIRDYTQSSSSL

pIC50 [1]: 7.04
Structure (SMILES): N#Cc1cnc(Nc2nc3ccccc3o2)nc1-c1ccc(F)cc1

pIC50 [2]: 7.70
Structure (SMILES): N#Cc1cccc(C#C[C@H]2CCC[C@H]3CN(c4ncccc4C#N)CCN32)c1 (racemic)

pIC50 [3]: 8.00
Structure (SMILES): N#Cc1nccnc1N1CCN2[C@@H](CC[C@@H]2c2nnn(-c3cccc(Cl)c3)n2)C1 (racemic)

pIC50 [4]: 9.10
Structure (SMILES): O=C(Nc1ccnc(Cl)c1)c1nnn2c1CSc1c-2ccc(F)c1Cl

pKi [5]: 8.17
Structure (SMILES): Cc1cccc(C(=O)NC23CC4CC(C2)CC(NC(=O)c2cccc(C)n2)(C4)C3)n1
